Laboratory results reported in patent publication US5225410A, “Triazolyl hydrazide derivatives” (Egis Gyogyszergyar, priority 1989, dated 1993).

Legend:
[1] = system: experimental coronaria insufficiency; assay: Antianginal effect (vasopressin-induced experimental coronaria insufficiency, ECG wave T); type: in vivo; conditions: Rattus norvegicus; rats, iv., 2 minutes prior to vasopressin
Experimental: The test was carried out on rats weighing 180 to 220 g. The animals were narcotised with chloralese-urethane (70-700 mg/kg ip.). The ECG was registered with needle electrodes in standard II leading. The experimental coronaria insufficiency was induced with vasopressin (1 NE/kg i.v.). The height of wave T was measured before and after the administration of vasopressin in both the control and treated groups.

mice = type: in vivo; conditions: p.o., motility inhibiting effect
Experimental: Method: Borsy, J., Csanyi, E., Lazar, I.: Arch. Int. Pharmacodyn. 124, 1-2 (1960)
The tests were performed on mice. Groups consisting of 3 mice each were trated perorally with different doses of the compounds to be tested. One hour after the administration the test animals were placed in a Dews equipment. In this equipment the number of interruptions of infrared beam within 30 minutes was counted.

Acute toxicity on mice = conditions: mouse, in vivo, po, observed 14 days
Experimental: Method: Litchfield, J. T., Wilcoxon, F. W.: Pharmacol. Exp. Ther., 96, 99 (1949)
White mice belonging to the CFLP strain (body weight 18 to 22 g, both male and female) were used, 6 animals for each dose. The test compounds were administered orally in a volume of 20 ml/kg. […] The mice were kept in a plastic cage at room temperature. The animals get tap water and standard mouse fodder ad libitum. The toxicity data were determined with the aid of the method of Litchfield and Wilcoxon.

[2] = system: Gastric-secretion and ulcus; assay: Stomach-secretion and ulcus tests (pylorus ligature); type: in vivo, Wistar rats; conditions: 3 hours before operation
Experimental: Method: Shay, H., Komarov, S. A., Fels. S. S., Meranze, D., Gruenstein, M., Siplet, H.: Gastroenterology 5, 45 (1945); Adami, E., Marazzi-Ubertti, E., Tirba, C.: Arch. Int. Pharmacodyn. 147, 113 (1964)
Starved wistar […] of 150-250 g body weight were used, 4 male and 4 female animals for each dose. On the day of the experiment the pylorus of the animals was ligatured under ether narcosis. The doses of the test compounds were administered per os, 3 hours before the operation. The control groups were treated with the carrier in identical way. 4 hours after the operation the animals were over-narcotized with ether, their stomach was removed, the stomach contents were separated and after centrifugation the volume of the gastric juices was measured, then their free-acid content and total acidity, resp., were determined by titration with 0.1N NaOH solution. The changes of the gastric mucous membrane were investigated macroscopically and characterized by an ulcus index determined with the aid of the punctuation method of Adami and coworkers.

Pseudomonas aeruginosa = assay: Antimicrobial effect, agar diffusion method; type: cell-based; conditions: HNCMB 170006; 500/μg/hole
Description: (§1) In addition, the compounds according to the invention posses valuable antimicrobial effect, especially against nonfermenting Gram-negative bacteria strains.

Salmonella enteritidus = assay: Antimicrobial effect, agar diffusion method; type: cell-based; conditions: HNCMB 10091; 500/μg/hole
Description: as §1

Shigella sonnei = assay: Antimicrobial effect, agar diffusion method; type: cell-based; conditions: HNCMB 20046; 500/μg/hole
Description: as §1

[3] = system: Acinetobacter calcoaceticus; assay: Antimicrobial effect, agar diffusion method; type: cell-based; conditions: HNCMB 150001; 500/μg/hole
Description: as §1

Alcaligenea faecalis = assay: Antimicrobial effect, agar diffusion method; type: cell-based; conditions: HNCMB 140001; 500/μg/hole
Description: as §1

Pseudomonas stutzeri = assay: Antimicrobial effect, agar diffusion method; type: cell-based; conditions: HNCMB 173008; 500/μg/hole
Description: as §1

**Q.** With `CC(Cc1ccccc1)NCCC(c1ccccc1)c1ccccc1` (centres unmarked) [Prenylamine, reference compound] as the molecule, how does the ED50 [1] read?
**A.** 6.5 mg/kg

**Q.** For `CSc1nc(N)n(C(=S)NN)n1` [Example 17, 1-(5-Amino-3-methylthio-1H-1,2,4-triazol-1-yl)carbothiohydrazide], which ED50 [1] is on record?
**A.** 0.84 mg/kg

**Q.** And the Therapeutical index (mice)?
**A.** ~ 5

**Q.** And the LD50 at 336 h (Acute toxicity on mice)?
**A.** 350 mg/kg

**Q.** With `CNN(C)C(=S)n1nc(N2CCOCC2)nc1N` [Example 20, 1-(5-Amino-3-morpholino-1H-1,2,4-triazol-1-yl)-N,N'-dimethyl-carbothiohydrazide] as the molecule, how does the “Inhibition related to the control in %, free acid” value ([2]; 50 mg/kg po.) read?
**A.** 46%

**Q.** What about the “Inhibition related to the control in %, gastric juice” value ([2]; 50 mg/kg po.) of the same molecule?
**A.** 36%

**Q.** And the “Inhibition related to the control in %, total acidity” value ([2]; 50 mg/kg po.)?
**A.** 36%

**Q.** What about the “Inhibition related to the control in %, ulcus index” value ([2]; 50 mg/kg po.) of the same molecule?
**A.** 39%

**Q.** What about the “Inhibition related to the control in %, free acid” value ([2]; 200 mg/kg po.) of the same molecule?
**A.** 91%

**Q.** And the “Inhibition related to the control in %, gastric juice” value ([2]; 200 mg/kg po.)?
**A.** 58%

**Q.** And the “Inhibition related to the control in %, total acidity” value ([2]; 200 mg/kg po.)?
**A.** 78%

**Q.** And the “Inhibition related to the control in %, ulcus index” value ([2]; 200 mg/kg po.)?
**A.** 70%

**Q.** And the LD50 at 336 h (Acute toxicity on mice)?
**A.** 1000 mg/kg

**Q.** Which results are given for `CN1CCN(c2nc(N)n(C(=S)N(C)N)n2)CC1` [Example 9]?
**A.** Inhibition (%) (Pseudomonas aeruginosa): 14%; Inhibition (%) (Salmonella enteritidus): 17%; Inhibition (%) (Shigella sonnei): 19%; Inhibition (%) [3]: 20%; Inhibition (%) (Alcaligenea faecalis): 23%; Inhibition (%) (Pseudomonas stutzeri): 25%; LD50 at 336 h (Acute toxicity on mice): 1000 mg/kg

**Q.** Which ED50 [1] does the source give for `NNC(=S)n1nc(N2CCOCC2)nc1N` [Example 16, 1-(5-Amino-3-morpholino-1H-1,2,4-triazol-1-yl)carbothiohydrazide] here?
**A.** 0.7 mg/kg

**Q.** What about the LD50 at 336 h (Acute toxicity on mice) of the same molecule?
**A.** 1000 mg/kg

**Q.** For `CSc1nc(N)n(C(=S)N(C)N)n1` [Example 4, 1-(5-Amino-3-methylthio-1H-1,2,4-triazol-1-yl)-N-methyl-carbothiohydrazide], which “Inhibition related to the control in %, free acid” value ([2]; 60 mg/kg po.) is on record?
**A.** 60%

**Q.** What about the “Inhibition related to the control in %, gastric juice” value ([2]; 60 mg/kg po.) of the same molecule?
**A.** 41%

**Q.** What about the “Inhibition related to the control in %, total acidity” value ([2]; 60 mg/kg po.) of the same molecule?
**A.** 50%

**Q.** And the “Inhibition related to the control in %, ulcus index” value ([2]; 60 mg/kg po.)?
**A.** 67%

**Q.** What about the LD50 at 336 h (Acute toxicity on mice) of the same molecule?
**A.** 300 mg/kg

**Q.** With `CCCC(C)(COC(N)=O)COC(N)=O` [Meprobamate, reference compound] as the molecule, how does the Therapeutical index (mice) read?
**A.** 4.1

**Q.** For `CN/C(=N/CCSCc1nc[nH]c1C)NC#N` [Cimetidine, reference compound], which “Inhibition related to the control in %, free acid” value ([2]; 50 mg/kg po.) is on record?
**A.** 24%

**Q.** And the “Inhibition related to the control in %, gastric juice” value ([2]; 50 mg/kg po.)?
**A.** 22%

**Q.** And the “Inhibition related to the control in %, total acidity” value ([2]; 50 mg/kg po.)?
**A.** 15%

**Q.** What about the “Inhibition related to the control in %, ulcus index” value ([2]; 50 mg/kg po.) of the same molecule?
**A.** 18%

**Q.** What about the “Inhibition related to the control in %, free acid” value ([2]; 200 mg/kg po.) of the same molecule?
**A.** 91%

**Q.** And the “Inhibition related to the control in %, gastric juice” value ([2]; 200 mg/kg po.)?
**A.** 59%

**Q.** And the “Inhibition related to the control in %, total acidity” value ([2]; 200 mg/kg po.)?
**A.** 71%

**Q.** And the “Inhibition related to the control in %, ulcus index” value ([2]; 200 mg/kg po.)?
**A.** 72%

**Q.** For `CN(N)C(=S)n1nc(N2CCOCC2)nc1N` [Example 1, 1-(5-Amino-3-morpholino-1H-1,2,4-triazol-1-yl)-N-methyl-carbothiohydrazide], which Therapeutical index (mice) is on record?
**A.** > 10

**Q.** What about the LD50 at 336 h (Acute toxicity on mice) of the same molecule?
**A.** > 1000 mg/kg
